Here are results for 13 molecules from US9822115B2, “Nitrogen containing compounds and their use as antibacterial agents” (WOCKHARDT LIMITED, priority 2014, dated 2017).

Converted amounts (≈) assume the structure as drawn. Where two headings read alike, the source gives them in different places.

For assay [1], the target named is T1, Class D beta-lactamase, A. baumannii NCTC 13301 (OXA 23) (Acinetobacter baumannii, UniProt Q9L4P2).
T1 construct: preincubated mixture of crude enzyme and the agents; endogenous in cells; host or cells: A. baumannii NCTC 13301
In words: Beta-lactamase enzyme inhibition (nitrocefin, crude enzyme). The settings on record: Class D A. baumannii NCTC 13301 (OXA 23); read-out: Beta-lactamase enzyme inhibition IC50. It is filed as biochemical. The method in brief: (§1)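 Crude enzyme preincubated with inhibitor 10 min at 37 °C, then nitrocefin (100 uM) added for 5 min. Absorbance read at 485 nm; IC50 obtained from sigmoidal dose-response fit of absorbance versus concentration.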

The subject of assay [2] is K. pneumoniae H521 (KPC, SHV, TEM). In words: Antibacterial activity, MIC by agar dilution (CLSI). The assay is classed as cell-based. The method in brief:
(§2)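 Agar dilution per CLSI on Mueller Hinton agar with doubling compound dilutions, about 10^4 CFU/spot by multipoint inoculator. Plates incubated 16-20 h at 35±2° C in ambient air; procedure also gives 37° C for 18 h. MIC (mcg/ml) scored as growth or no growth.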

Assay [3] concerns the target T2, Class A beta-lactamase, K. pneumoniae ATCC 700603 (SHV 18) (Klebsiella pneumoniae, UniProt P0AD64, E235K/G234A/R39S).
T2 construct: preincubated mixture of crude enzyme and the agents; endogenous in cells; host or cells: K. pneumoniae ATCC 700603
Description: biochemical. The method in brief:
as §1

The test system of assay [4] is E. coli NCTC 13353 (CTX-M15, OXA-1). Description: Antibacterial activity, MIC by agar dilution (CLSI). It is filed as cell-based. The method in brief: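 CLSI agar dilution on Mueller Hinton agar containing doubling compound dilutions, inoculated at about 10^4 CFU/spot from fresh cultures. Plates were incubated 18 h at 37 °C in ambient air before growth scoring. MIC is reported in mcg/ml.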

Assay [5] deals with T3, Class C beta-lactamase, E. coli M50 (CMY/DHA).
T3 construct: no borders, tags or purification printed
It is filed as biochemical. The settings on record: read-out: Beta-lactamase enzyme inhibition IC50. As to the method:
Determination of enzyme inhibition activity: Concentration of the inhibitor required to inhibit 50% of enzymatic activity was measured by adding a chromogenic substrate, Nitrocefin (100 uM, 5 min) to the preincubated mixture of crude enzyme and the agents (37° C., 10 min). Absorbance was measured at 485 nm by UV-spectrophotometer. The IC50 was calculated by plotting absorbance against concentration through Sigmoidal dose response curve using Graph Pad software.
The enzyme inhibition was expressed as IC50.

For assay [6], the system named is K. pneomoniae S48 (NDM, SHV, TEM). Description: Antibacterial activity, MIC by agar dilution (CLSI). The assay is classed as cell-based, K. pneumoniae. The method in brief:
as §2

[7] abbreviates: Klebsiella pneumoniae, Table 2, K. pneumoniae H521 (KPC, SHV, TEM), read-out: MIC.
Where [8] appears, read: Escherichia coli, NCTC13353, Table 2, E. Coli NCTC 13353 (CTX-M15, OXA-1), read-out: MIC.
Setting [9] is: Klebsiella pneumoniae, Table 2, K. pneomoniae S48 (NDM, SHV, TEM), read-out: MIC.

T2 sequence (P0AD64 22-286 R39S/G234A/E235K): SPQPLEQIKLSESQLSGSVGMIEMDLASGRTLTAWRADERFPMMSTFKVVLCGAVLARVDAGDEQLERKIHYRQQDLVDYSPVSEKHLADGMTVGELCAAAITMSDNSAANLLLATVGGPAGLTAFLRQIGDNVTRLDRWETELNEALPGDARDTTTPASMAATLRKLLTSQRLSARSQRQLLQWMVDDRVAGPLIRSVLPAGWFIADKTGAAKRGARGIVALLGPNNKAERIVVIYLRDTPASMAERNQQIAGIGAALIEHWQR
T1 sequence (Q9L4P2 18-273): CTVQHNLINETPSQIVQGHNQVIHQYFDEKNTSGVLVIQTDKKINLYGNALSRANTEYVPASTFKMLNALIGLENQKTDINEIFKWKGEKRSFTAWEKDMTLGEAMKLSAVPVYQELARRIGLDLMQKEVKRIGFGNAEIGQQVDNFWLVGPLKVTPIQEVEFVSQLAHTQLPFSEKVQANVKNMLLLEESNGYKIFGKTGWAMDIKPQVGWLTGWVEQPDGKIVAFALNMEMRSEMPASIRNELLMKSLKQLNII

Regarding `C[C@@H](N)COc1ccc(CC(=O)NNC(=O)[C@@H]2CC[C@@H]3CN2C(=O)N3OS(=O)(=O)O)cc1` [Example 49, (2S,5R)-sulfuric acid mono-[2-(N′-{2-[4-((R)-2-amino-propoxy)-phenyl]-acetyl}-hydrazinocarbonyl)-7-oxo-1,6-diaza-bicyclo[3.2.1]oct-6-yl]ester], the IC50 in assay [1] was determined as 542 nM; in assay [3], 112 nM; in assay [5], 47 nM. In addition, the results for the MIC in assay [2] (setting [7]), in assay [4] (setting [8]) and in assay [6] (setting [9]) were 1 µg/mL (≈ 2.12 µM), 0.5 µg/mL (≈ 1.06 µM) and 0.5 µg/mL (≈ 1.06 µM), respectively.

For the molecule `Nc1ccccc1CC(=O)NNC(=O)[C@@H]1CC[C@@H]2CN1C(=O)N2OS(=O)(=O)O` [Example 21, (2S,5R)-sulfuric acid mono-[2-(N′-(2-aminophenyl-acetyl)-hydrazinocarbonyl)-7-oxo-1,6-diaza-bicyclo[3.2.1]oct-6-yl]ester], the IC50 in assay [1] is 4510 nM; in assay [3], 35 nM; in assay [5] it was 34 nM. The MIC in assay [2] (Klebsiella pneumoniae) is 16 µg/mL (≈ 38.7 µM); in assay [4] (Escherichia coli, NCTC13353), 16 µg/mL (≈ 38.7 µM); in assay [6] (Klebsiella pneumoniae) it was 16 µg/mL (≈ 38.7 µM).

Take `CC(C)[C@@H](N)COc1ccc(CC(=O)NNC(=O)[C@@H]2CC[C@@H]3CN2C(=O)N3OS(=O)(=O)O)c(F)c1` [Example 46, (2S,5R)-sulfuric acid mono-[2-(N′-{2-[2-fluoro-4-((R)-2-amino-3-methyl-butoxy)-phenyl]-acetyl}-hydrazinocarbonyl)-7-oxo-1,6-diaza-bicyclo[3.2.1]oct-6-yl]ester]: the IC50 stood at 4100 nM in assay [1], 79 nM in assay [3] and 266 nM in assay [5]. Moreover, the MIC turned out to be 4 µg/mL (≈ 7.73 µM) in assay [2] (setting [7]), 2 µg/mL (≈ 3.86 µM) in assay [4] (setting [8]) and 4 µg/mL (≈ 7.73 µM) in assay [6] (setting [9]).

Take `O=C(Cc1ccc(O[C@H]2CCNC2)cc1F)NNC(=O)[C@@H]1CC[C@@H]2CN1C(=O)N2OS(=O)(=O)O` [Example 47, (2S,5R)-sulfuric acid mono-[2-(N′-{2-[2-fluoro-4-((S)-pyrrolidin-3-oxy)-phenyl]-acetyl}-hydrazinocarbonyl)-7-oxo-1,6-diaza-bicyclo[3.2.1]oct-6-yl]ester]: the figures for the half-inhibitory concentration (IC50) in assay [1], in assay [3] and in assay [5] were 842 nM, 15.1 nM and 77 nM, respectively. In addition, the MIC in assay [2] (setting [7]) was 2 µg/mL (≈ 3.99 µM); in assay [4] (setting [8]) it was 1 µg/mL (≈ 1.99 µM); in assay [6] (setting [9]) it was 0.5 µg/mL (≈ 0.997 µM).

Consider `CC(OC(=O)NCCOc1ccccc1CC(=O)NNC(=O)[C@@H]1CC[C@@H]2CN1C(=O)N2OS(=O)(=O)[O-])OC(=O)C(C)C.[Na+]` (stereo partly drawn) [Example 65, sodium salt of isobutyric acid 1-[2-(2-{2-oxo-2-[N′-((2S,5R)-6-sulphooxy-7-oxo-1,6-diaza-bicyclo[3.2.1]octane-2-carbonyl)-hydrazino]-ethyl}-phenoxy)-ethylcarbamoyloxy]-ethyl ester], for which the IC50 in assay [1] is 537 nM; in assay [3] (Class A K. pneumoniae ATCC 700603 (SHV 18), read-out: Beta-lactamase enzyme inhibition IC50), 8 nM; in assay [5] it was 5 nM. The MIC is over 32 µg/mL in assay [2] (Table 2, K. pneumoniae H521 (KPC, SHV, TEM)); over 32 µg/mL in assay [4] (Table 2, E. Coli NCTC 13353 (CTX-M15, OXA-1)); over 32 µg/mL in assay [6] (Table 2, K. pneomoniae S48 (NDM, SHV, TEM)).

For `C[C@H](N)COc1ccc(CC(=O)NNC(=O)[C@@H]2CC[C@@H]3CN2C(=O)N3OS(=O)(=O)O)cc1` [Example 43, (2S,5R)-sulfuric acid mono-[2-(N′-{2-[4-((S)-2-amino-propoxy)-phenyl]-acetyl}-hydrazinocarbonyl)-7-oxo-1,6-diaza-bicyclo[3.2.1]oct-6-yl]ester], the IC50 in assay [1] was found to be 522 nM; in assay [3], 386 nM; in assay [5], 37 nM. For the same molecule, the MIC in assay [2] (setting [7]) came out at 2 µg/mL (≈ 4.24 µM); in assay [4] (setting [8]) it was 0.5 µg/mL (≈ 1.06 µM); in assay [6] (setting [9]) it was 0.5 µg/mL (≈ 1.06 µM).

Regarding `O=C(Cc1cccc(OC[C@@H]2CCNC2)c1)NNC(=O)[C@@H]1CC[C@@H]2CN1C(=O)N2OS(=O)(=O)O` [Example 60, (2S,5R)-sulfuric acid mono-[2-(N′-{2-[3-((R)-pyrrolidin-3-ylmethoxy)-phenyl]-acetyl}-hydrazinocarbonyl)-7-oxo-1,6-diaza-bicyclo[3.2.1]oct-6-yl]ester], the results for the IC50 in assay [1], in assay [3] and in assay [5] were 1280 nM, 45 nM and 41 nM, respectively. In addition, the MIC worked out at 2 µg/mL (≈ 4.02 µM) in assay [2] (setting [7]), 1 µg/mL (≈ 2.01 µM) in assay [4] (setting [8]) and 1 µg/mL (≈ 2.01 µM) in assay [6] (setting [9]).

For the molecule `O=C(Cc1ccccc1OC[C@@H]1CCCN1)NNC(=O)[C@@H]1CC[C@@H]2CN1C(=O)N2OS(=O)(=O)O` [Example 56, (2S,5R)-sulfuric acid mono-[2-(N′-{2-[2-((S)-pyrrolidin-2-ylmethoxy)-phenyl]-acetyl}-hydrazinocarbonyl)-7-oxo-1,6-diaza-bicyclo[3.2.1]oct-6-yl]ester], the IC50 in assay [1] is 1760 nM; in assay [3], 142 nM; in assay [5], 50 nM. In addition, the values for the minimal inhibitory concentration (MIC) in assay [2] (setting [7]), in assay [4] (setting [8]) and in assay [6] (setting [9]) were 16 µg/mL (≈ 32.2 µM), 8 µg/mL (≈ 16.1 µM) and 16 µg/mL (≈ 32.2 µM), respectively.

For `O=C(Cc1cccc(OC[C@@H]2CCCN2)c1)NNC(=O)[C@@H]1CC[C@@H]2CN1C(=O)N2OS(=O)(=O)O` [Example 58, (2S,5R)-sulfuric acid mono-[2-(N′-{2-[3-((S)-pyrrolidin-2-ylmethoxy)-phenyl]-acetyl}-hydrazinocarbonyl)-7-oxo-1,6-diaza-bicyclo[3.2.1]oct-6-yl]ester], the concentration for half-maximal inhibition (IC50) in assay [1] amounted to 1470 nM; in assay [3], 53 nM; in assay [5] it was 37 nM. In addition, the MIC turned out to be 2 µg/mL (≈ 4.02 µM) in assay [2] (setting [7]), 1 µg/mL (≈ 2.01 µM) in assay [4] (setting [8]) and 0.5 µg/mL (≈ 1 µM) in assay [6] (setting [9]).

As for `C[C@H](N)COc1cccc(CC(=O)NNC(=O)[C@@H]2CC[C@@H]3CN2C(=O)N3OS(=O)(=O)O)c1` [Example 41, (2S,5R)-sulfuric acid mono-[2-(N′-{2-[3-((S)-2-amino-propoxy)-phenyl]-acetyl}-hydrazinocarbonyl)-7-oxo-1,6-diaza-bicyclo[3.2.1]oct-6-yl]ester], the IC50 in assay [1] was determined as 990 nM; in assay [3], 38 nM; in assay [5] it was 53 nM. Moreover, the minimal inhibitory concentration (MIC) in assay [2] (setting [7]) was determined as 1 µg/mL (≈ 2.12 µM); in assay [4] (setting [8]) it was 0.5 µg/mL (≈ 1.06 µM); in assay [6] (setting [9]), 0.5 µg/mL (≈ 1.06 µM).

In the case of `O=C(Cc1ccc(OC(=O)[C@@H]2CCCN2)cc1)NNC(=O)[C@@H]1CC[C@@H]2CN1C(=O)N2OS(=O)(=O)O` [Example 25, (S)-pyrrolidine-2-carboxylic acid 4-{2-oxo-2-[N′-((2S,5R)-7-oxo-6-sulphooxy-1,6-diaza-bicyclo[3.2.1]octane-2-carbonyl)-hydrazino]ethyl}-phenyl ester], the values for the 50% inhibitory concentration (IC50) in assay [1], in assay [3] and in assay [5] were 329 nM, 16 nM and 11 nM, respectively. Also, the minimum inhibitory concentration (MIC) amounted to 1 µg/mL (≈ 1.95 µM) in assay [2] (setting [7]), 0.5 µg/mL (≈ 0.977 µM) in assay [4] (setting [8]) and 1 µg/mL (≈ 1.95 µM) in assay [6] (setting [9]).

As for `O=C(Cc1ccccc1OC[C@H]1CCCN1)NNC(=O)[C@@H]1CC[C@@H]2CN1C(=O)N2OS(=O)(=O)O` [Example 57, (2S,5R)-sulfuric acid mono-[2-(N′-{2-[2-((R)-pyrrolidin-2-ylmethoxy)-phenyl]-acetyl}-hydrazinocarbonyl)-7-oxo-1,6-diaza-bicyclo[3.2.1]oct-6-yl]ester], the IC50 in assay [1] is 3290 nM; in assay [3], 125 nM; in assay [5], 105 nM. Moreover, the MIC was determined as 4 µg/mL (≈ 8.04 µM) in assay [2] (setting [7]), 2 µg/mL (≈ 4.02 µM) in assay [4] (setting [8]) and 2 µg/mL (≈ 4.02 µM) in assay [6] (setting [9]).

Regarding `NCCCOc1ccccc1CC(=O)NNC(=O)[C@@H]1CC[C@@H]2CN1C(=O)N2OS(=O)(=O)O` [Example 34, (2S,5R)-sulfuric acid mono-[2-(N′-{2-[2-(3-amino-propoxy)-phenyl]-acetyl}-hydrazinocarbonyl)-7-oxo-1,6-diaza-bicyclo[3.2.1]oct-6-yl]ester], the values for the IC50 in assay [1], in assay [3] and in assay [5] were 3810 nM, 79 nM and 60 nM, respectively. Besides, the MIC in assay [2] (setting [7]), in assay [4] (setting [8]) and in assay [6] (setting [9]) was 2 µg/mL (≈ 4.24 µM) each time.
